From patent US20070010489A1 (priority 2002, published 2007)
Values joined by “and” are separate entries in the source; they are usually repeats but may differ in a detail not shown here. Equal entries are not always repeated. Where two headings read alike, the source gives them in different places.

Columns and labels:
[1] = tested on: wild-type HIV-1 strain IIIB; experiment: microbe, parasite or virus in culture; assay type: cell-based
[2] = tested on: mutant HIV-1 with I84V/L90M mutations; experiment: microbe, parasite or virus in culture; assay type: cell-based
[3] = molecular target: T1, recombinant HIV-1 protease (Human immunodeficiency virus type 1 group M subtype B, UniProt P04585); experiment: biochemical; conditions: for IC50: read-out: WT IC50
T1 construct: Enzyme: recombinant HIV-1 protease expressed in E. Coli; purchased Bachem California, Inc. H-9040; host or cells: E. coli

84V90M [4] = molecular target: T2, 84V90M (Human immunodeficiency virus type 1 group M subtype B, UniProt P04585, I572V/L578M); assay type: biochemical, HIV; conditions: Enzymatic assay
84V90M [5] = molecular target: T2, 84V90M; experiment: cell-based; design: species or system HIV; conditions: Cell-based assay (MT-4)
HIV = experiment: microbe, parasite or virus in culture; assay type: cell-based; conditions: Human immunodeficiency virus 1
I84V/L90M = tested on: I84V/L90M; design: key to the marks not given beside the values
[6] = Human immunodeficiency virus 1, IIIB

## CC(C)CN(CC(O)C(Cc1ccccc1)NC(=O)OC1COC2OCCC12)S(=O)(=O)c1cccc(OCP(=O)(OCc2ccccc2)OCc2ccccc2)c1 (stereo not drawn)
[1]; [6]
  EC50: < 50 nM
[2]; fold change
  I84V/L90M fold change: ++ (>10 to ≦30)

## CCOP(=O)(COc1cccc(CN2C(=O)N(Cc3ccc4[nH]nc(N)c4c3)C(Cc3ccccc3)C(O)C(O)C2Cc2ccccc2)c1)OCC (stereo not drawn)
[3]; read-out: Ki
  Ki: 1.93 nM
[3]
  IC50: 70 nM
84V90M [4]
  IC50: 169 nM
84V90M [5]
  EC50: 3000 nM

## CCOP(=O)(COc1cccc(S(=O)(=O)N(CC(C)C)CC(O)C(Cc2ccccc2)NC(=O)OC2COC3OCCC23)c1)OCC (stereo not drawn)
[1]; [6]
  EC50: < 50 nM
[2]; fold change
  I84V/L90M fold change: ++ (>10 to ≦30)

## Cc1cccc(C)c1OCC(=O)NC(Cc1ccc(OCP(=O)(OCc2ccccc2)OCc2ccccc2)cc1)C(O)CN(CC(C)C)S(=O)(=O)c1ccc(N)cc1 (stereo not drawn)
[1]; [6]
  EC50: 50 to 500 nM
[2]; fold change
  I84V/L90M fold change: − (≦3)

## CC(C)CN(CC(O)C(Cc1ccccc1)NC(=O)OC1COC2OCCC12)S(=O)(=O)c1ccc(OCP(=O)(OCc2ccccc2)OCc2ccccc2)cc1 (stereo not drawn)
[1]; [6]
  EC50: 50 to 500 nM
[2]; fold change
  I84V/L90M fold change: +++ (>30)

## Nc1n[nH]c2ccc(CN3C(=O)N(CCCCOCP(=O)(O)O)C(Cc4ccccc4)C(O)C(O)C3Cc3ccccc3)cc12 (stereo not drawn) [CH2OCH2PO3H2]
84V90M [4]
  IC50: 205 nM
84V90M [5]
  EC50: > 4240 nM

## CCOP(=O)(COc1ccc(CC2C(O)C(O)C(Cc3ccc(OC)cc3)N(Cc3cccnc3)C(=O)N2Cc2cccnc2)cc1)OCC (stereo not drawn) [OCH3, m-pyridine, OCH2PO3Et2]
84V90M [5]
  EC50: 765 nM

## CCOC(=O)C(CC(C)C)NP(=O)(COc1ccc(CC(NC(=O)OC2COC3OCCC23)C(O)CN(CC(C)C)S(=O)(=O)c2ccc(OC)cc2)cc1)NC(CC(C)C)C(=O)OCC (stereo not drawn) [Example 16g]
[3]; read-out: HIV-1 protease inhibition Ki
  Ki: 0.029 ± 0.009 nM
[1]; read-out: Anti-HIV-1 Cell Culture Activity EC50
  EC50: 6.8 ± 0.4 nM

## CCOP(=O)(COc1ccc(CC(NC(=O)OC2CCOC2)C(O)CN(CC(C)C)S(=O)(=O)c2ccc(OC)cc2)cc1)OCC (stereo not drawn) [OMe, OEt]
[3]; read-out: Ki
  Ki: < 0.01 nM and 0.01 to 0.1 nM
[1]; read-out: EC50
  EC50: < 50 nM

## COc1ccc(S(=O)(=O)N(CC(C)C)CC(O)C(Cc2ccc(CO)cc2)NC(=O)OC2COC3OCCC23)cc1 (stereo not drawn)
[1]; [6]
  EC50: < 50 nM
[2]; fold change
  I84V/L90M fold change: − (≦3)

## COc1ccc(S(=O)(=O)N(CC(O)C(Cc2ccccc2)NC(=O)OC2COC3OCCC23)CC(C)(C)COCP(=O)(O)O)cc1 (stereo not drawn)
HIV
  EC50: 500 to 5000 nM
I84V/L90M
  I84V/L90M fold change: +++

## Nc1n[nH]c2ccc(CN3C(=O)N(Cc4ccc(OCP(=O)(OCc5ccccc5)OCc5ccccc5)cc4)C(Cc4ccccc4)C(O)C(O)C3Cc3ccccc3)cc12 (stereo not drawn)
[3]; read-out: Ki
  Ki: > 5 nM
[3]
  IC50: 276 nM
84V90M [4]
  IC50: 2040 nM
84V90M [5]
  EC50: 4960 nM

## COc1ccc(S(=O)(=O)N(CC(O)C(Cc2ccccc2)NC(=O)OC2COC3OCCC23)CC(C)(C)COCP(=O)(OCc2ccccc2)OCc2ccccc2)cc1 (stereo not drawn)
HIV
  EC50: < 50 nM
I84V/L90M
  I84V/L90M fold change: ++

## COc1ccc(S(=O)(=O)N(CC(C)C)CC(O)C(Cc2ccc(OCP(=O)(OC(C)C)OC(C)C)cc2)NC(=O)OC2COC3OCCC23)cc1 (stereo not drawn) [drawing 1768 R1=OiPr R2=OiPr]
[2]; fold difference in EC50 mutant vs wild type, class symbols
  I84V/L90M fold change: − (≦3)

## CCOP(=O)(COc1ccc(CC2C(O)C(O)C(Cc3ccc(O)cc3)N(Cc3ccc(O)cc3)C(=O)N2Cc2ccc(O)cc2)cc1)OCC (stereo not drawn) [OH, Ph-pOH, OCH2PO3Et2]
84V90M [4]
  IC50: 18 nM
84V90M [5]
  EC50: 1910 nM

## Nc1n[nH]c2ccc(CN3C(=O)N(Cc4cccc(OCP(=O)(OCc5ccccc5)OCc5ccccc5)c4)C(Cc4ccccc4)C(O)C(O)C3Cc3ccccc3)cc12 (stereo not drawn)
[3]; read-out: Ki
  Ki: 0.177 nM
[3]
  IC50: 18 nM
84V90M [4]
  IC50: 43 nM
84V90M [5]
  EC50: > 6000 nM

## CCCCOC(=O)C(C)NP(=O)(COc1cccc(CN2C(=O)N(Cc3ccc4[nH]nc(N)c4c3)C(Cc3ccccc3)C(O)C(O)C2Cc2ccccc2)c1)NC(C)C(=O)OCCCC (stereo not drawn) [m-bis-Ala-Bu]
84V90M [5]
  EC50: > 6000 nM

## CC(C)CN(C[C@@H](O)[C@H](Cc1ccc(OCP(=O)(Oc2ccccc2)Oc2ccccc2)cc1)NC(=O)OC1CCOC1)S(=O)(=O)c1ccc(N)cc1 (stereo partly drawn) [NH2, phenol]
[1]; read-out: EC50
  EC50: 50 to 500 nM
[2]; fold change
  I84V/L90M fold change: − (≦3)

## COc1ccc(S(=O)(=O)N(CC(C)C)C[C@@H](O)[C@H](Cc2ccc(OCP(=O)(OCc3ccccc3)OCc3ccccc3)cc2)NC(=O)OC2CCOC2)cc1 (stereo partly drawn) [OMe, OBn]
[1]; read-out: EC50
  EC50: < 50 nM
[2]; fold change
  I84V/L90M fold change: ++ (>10 to ≦30)

## CCOP(=O)(COCC(C)(C)CN(CC(O)C(Cc1ccccc1)NC(=O)OC1COC2OCCC12)S(=O)(=O)c1ccc(OC)cc1)OCC (stereo not drawn)
HIV
  EC50: < 50 nM
I84V/L90M
  I84V/L90M fold change: +++

## Nc1n[nH]c2ccc(CN3C(=O)N(CCCOCP(=O)(O)O)C(Cc4ccccc4)C(O)C(O)C3Cc3ccccc3)cc12 (stereo not drawn) [OCH2PO3H2]
84V90M [4]
  IC50: 137 nM
84V90M [5]
  EC50: > 6000 nM

## COc1ccc(S(=O)(=O)N(CC(C)C)CC(O)C(Cc2ccc(NCP(=O)(NC(C)C(=O)OC(C)C)Oc3ccccc3)cc2)NC(=O)OC2COC3OCCC23)cc1 (stereo not drawn) [drawing 1820]
[1]; Human immunodeficiency virus 1, IIIB, class symbols
  EC50: < 50 nM

## CCOP(=O)(COc1ccc(S(=O)(=O)N(CC(C)C)CC(O)C(Cc2ccccc2)NC(=O)OC2COC3OCCC23)cc1)OCC (stereo not drawn)
[1]; [6]
  EC50: < 50 nM
[2]; fold change
  I84V/L90M fold change: ++ (>10 to ≦30)
